Source: patent publication US20060094722A1 (Eisai Co., Ltd., priority 2002, published 2006)
Where a name gives a salt, the structure may show the parent alone.

molecular target: T1, DPPIV obtained from swine kidney (Sus scrofa, UniProt P22411); experiment: Assay for the DPPIV-inhibiting activity; type: biochemical; conditions: DPPIV 10 mU/mL; Gly-Pro-p-nitroanilide 0.33 mM; absorbance 405 nm; read-out: IC50
T1 construct: DPPIV obtained from swine kidney; from tissue; host or cells: swine kidney
T1 sequence (P22411 whole entry): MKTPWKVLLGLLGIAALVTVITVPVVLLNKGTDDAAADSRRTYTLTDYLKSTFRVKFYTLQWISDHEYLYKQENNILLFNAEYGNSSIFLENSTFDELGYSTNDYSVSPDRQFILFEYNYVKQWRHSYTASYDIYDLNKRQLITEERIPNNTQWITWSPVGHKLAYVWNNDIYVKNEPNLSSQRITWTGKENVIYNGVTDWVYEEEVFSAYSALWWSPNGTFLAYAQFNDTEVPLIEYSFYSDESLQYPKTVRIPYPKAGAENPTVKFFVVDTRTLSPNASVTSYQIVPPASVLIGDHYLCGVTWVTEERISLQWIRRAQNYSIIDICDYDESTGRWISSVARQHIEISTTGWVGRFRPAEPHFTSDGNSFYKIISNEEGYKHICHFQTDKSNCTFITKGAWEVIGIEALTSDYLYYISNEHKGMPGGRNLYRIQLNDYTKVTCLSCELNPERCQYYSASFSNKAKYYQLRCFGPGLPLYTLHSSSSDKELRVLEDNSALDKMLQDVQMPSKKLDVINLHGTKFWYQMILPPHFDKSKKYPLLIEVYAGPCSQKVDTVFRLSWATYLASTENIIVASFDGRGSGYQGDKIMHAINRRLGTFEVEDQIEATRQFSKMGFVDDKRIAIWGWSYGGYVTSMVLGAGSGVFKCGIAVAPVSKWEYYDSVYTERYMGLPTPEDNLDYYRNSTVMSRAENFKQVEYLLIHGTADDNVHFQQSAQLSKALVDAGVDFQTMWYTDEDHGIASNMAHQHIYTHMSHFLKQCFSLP
Procedure: DPPIV obtained from swine kidney was dissolved in a reaction buffer (50 mM Tris-HCl (pH 7.4)/0.1% BSA) at a fmal concentration of 10 mU/mL. A 110 μL aliquot of this enzyme solution was added to the reaction system, and then 15 μL of an agent was added. The reaction solution was incubated at room temperature for 20 minutes. 25 μL of a solution containing 2 mM Gly-Pro-p-nitroanilide was added to the reaction solution (at the final concentration of 0.33 mM) to start the enzyme reaction. The reaction time was 20 minutes. 25 μL of 1N phosphate solution was added to stop the reaction. […] The degree of inhibition to the enzyme reaction was determined, and IC50 was computed based on the absorbance.

Going from `CC#CCn1c(N2CCNCC2)nc2nc(OC(C(=O)OC)c3ccccc3)n(C)c(=O)c21` (centres unmarked) [Example 4, trifluoroacetate] to `CC#CCn1c(N2CCNCC2)nc2c1c(=O)n(C)c(=O)n2C(C(=O)OC)c1ccccc1` (centres unmarked) [Example 402, Methyl[7-(2-butynyl)-1-methyl-2,6-dioxo-8-(piperazin-1-yl)-1,2,6,7-tetrahydropurin-3-yl]phenylacetate trifluoroacetate], the IC50 rises from 211 nM to 354 nM (1.7-fold).

`CC#CCn1c(N2CCNCC2)nc2nc(OC(C)C(=O)OCC)n(C)c(=O)c21` (centres unmarked) [Example 9, Ethyl 2-[7-(2-butynyl)-1-methyl-6-oxo-8-(piperazin-1-yl)-6,7-dihydro-1H-purin-2-yloxy]propionate] and `CC#CCn1c(N2CCNCC2)nc2nc(OCC(=O)OCC)n(C)c(=O)c21` [Example 13, Ethyl[7-(2-butynyl)-1-methyl-6-oxo-8-(piperazin-1-yl)-6,7-dihydro-1H-purin-2-yloxy]acetate] are within 1.5-fold of each other in IC50: 141 nM for the first, 125 nM for the second.

Compared with `CC#CCn1c(N2CCNCC2)nc2nc(OCC)n(C)c(=O)c21` [Example 12, 7-(2-Butynyl)-2-ethoxy-1-methyl-8-(piperazin-1-yl)-1,7-dihydropurin-6-one], `CC#CCn1c(N2CCNCC2)nc2nc(SCCC)n(C)c(=O)c21` [Example 129, 7-(2-Butynyl)-1-methyl-8-(piperazin-1-yl)-2-propylsulfanyl-1,7-dihydropurin-6-one trifluoroacetate] is 1.6-fold lower in IC50: 183 nM for the first, 115 nM for the second. The second is the more potent here.

Compared with `CC#CCn1c(N2CCNCC2)nc2nc(OC3(C(=O)OCC)CC3)n(C)c(=O)c21` [Example 16], `CC#CCn1c(N2CCNCC2)nc2nc(C(N)=O)n(C)c(=O)c21` [Example 83, 7-(2-Butynyl)-1-methyl-6-oxo-8-(piperazin-1-yl)-6,7-dihydro-1H-purine-2-carboxamide] is 9.9-fold lower in IC50: 272 nM for the first, 27.4 nM for the second.

Compared with `CC#CCn1c(N2CCNCC2)nc2nc(SCC(=O)O)n(C)c(=O)c21` [Example 79, [7-(2-Butynyl)-1-methyl-6-oxo-8-(piperazin-1-yl)-6,7-dihydro-1H-purin-2-ylsulfanyl]acetic acid trifluoroacetate], `CC#CCn1c(N2CCNCC2)nc2c1c(=O)n(C)c(=O)n2CC(=O)OC` [Example 398, Methyl[7-(2-butynyl)-1-methyl-2,6-dioxo-8-(piperazin-1-yl)-1,2,6,7-tetrahydropurin-3-yl]acetate trifluoroacetate] is 6.6-fold higher in IC50: 35.7 nM for the first, 237 nM for the second.

First: CC#CCn1c(N2CCNCC2)nc2cnn(C)c(=O)c21 [Example 115, 3-(2-Butynyl)-5-methyl-2-(piperazin-1-yl)-3,5-dihydroimidazo[4,5-d]pyridazin-4-one trifluoroacetate]
Second: CC#CCn1c(N2CCNCC2)nc2c1c(=O)n(C)c(=O)n2C(C)C [Example 408, 7-(2-Butynyl)-3-isopropyl-1-methyl-8-(piperazin-1-yl)-3,7-dihydropurine-2,6-dione trifluoroacetate]
The IC50 of the first is 1.8-fold lower: 185 nM for the first, 340 nM for the second.

Going from `CC#CCn1c(N2CCNCC2)nc2nc(Oc3ccccc3C(N)=O)n(Cc3ccc(C#N)cc3)c(=O)c21` [Example 235, 2-[7-(2-Butynyl)-1-(4-cyanobenzyl-6-oxo-8-(piperazin-1-yl)-6,7-dihydro-1H-purin-2-yloxy]benzamide trifluoroacetate] to `CC#CCn1c(N2CCNCC2)nc2ccn(CC(=O)c3ccccc3)c(=O)c21` [Example 341, 3-(2-Butynyl)-5-(2-oxo-2-phenylethyl)-2-(piperazin-1-yl)-3,5-dihydroimidazo[4,5-c]pyridin-4-one trifluoroacetate], the IC50 rises from 1.44 nM to 7.32 nM (5.1-fold). The first is the more potent here.

Compared with `CC#CCn1c(N2CCNCC2)nc2c1c(=O)n(CC(=O)OC)c(=O)n2C` [Example 355, Methyl[7-(2-butynyl)-3-methyl-2,6-dioxo-8-(piperazin-1-yl)-2,3,6,7-tetrahydropurin-1-yl]acetate trifluoroacetate], `CC#CCn1c(N2CCNCC2)nc2c1c(=O)n(C)c(=O)n2CC(=O)C(C)(C)C` [Example 409, 7-(2-Butynyl)-3-(3,3-dimethyl-2-oxobutyl)-1-methyl-8-(piperazin-1-yl)-3,7-dihydropurine-2,6-dione trifluoroacetate] is 1.5-fold higher in IC50: 147 nM for the first, 222 nM for the second. The first is the more potent here.

First: CC#CCn1c(N2CCNCC2)nc2c1c(=O)n(CC(=O)c1ccccc1)c(=O)n2C [Example 361, 7-(2-Butynyl)-3-methyl-1-[(2-oxo-2-phenyl)ethyl]-8-(piperazin-1-yl)-3,7-dihydropurine-2,6-dione trifluoroacetate]
Second: CC#CCn1c(N2CCNCC2)nc2c1c(=O)n(C)c(=O)n2CC(=O)c1ccccc1 [Example 404, 7-(2-Butynyl)-3-(2-oxo-2-phenethyl)-1-methyl-8-(piperazin-1-yl)-3,7-dihydropurine-2,6-dione trifluoroacetate]
The IC50 of the first is 420-fold lower: 0.654 nM for the first, 276 nM for the second.

Going from `Cn1c(=O)n(CCc2ccccc2)c(=O)c2c1nc(N1CCNCC1)n2-c1ccccc1Cl` [Example 377, 7-(2-Chlorophenyl)-3-methyl-1-(2-phenethyl)-8-(piperazin-1-yl)-3,7-dihydropurine-2,6-dione trifluoroacetate] to `CC#CCn1c(N2CCNCC2)nc2c1c(=O)n(CC(=O)c1ccccc1)c(=O)n2CCOCC` [Example 413, 7-(2-Butynyl)-3-(2-ethoxyethyl)-1-(2-oxo-2-phenylethyl-8-(piperazin-1-yl)-3,7-dihydropurine-2,6-dione trifluoroacetate], the IC50 falls from 8.77 nM to 1.95 nM (4.5-fold). The second is the more potent here.

First: CC#CCn1c(N2CCNCC2)nc2c1c(=O)n(C)c(=O)n2CC1CCCO1 (centres unmarked) [Example 400, 7-(2-Butynyl)-3-(2-tetrahydrofuranyl)methyl-1-methyl-8-(piperazin-1-yl)-3,7-dihydropurine-2,6-dione trifluoroacetate]
Second: CC#CCn1c(N2CCNCC2)nc2c1c(=O)n(C)c(=O)n2CCOCC [Example 407, 7-(2-Butynyl)-3-(2-ethoxyethyl)-1-methyl-8-(piperazin-1-yl)-3,7-dihydropurine-2,6-dione trifluoroacetate]
The IC50 of the first is 1.5-fold lower: 183 nM for the first, 275 nM for the second.

Going from `CC#CCn1c(N2CCNCC2)nc2c1c(=O)n(C)c(=O)n2C(C)C(=O)OCC` (centres unmarked) [Example 405, Ethyl 2-[7-(2-butynyl)-1-methyl-2,6-dioxo-8-(piperazin-1-yl)-1,2,6,7-tetrahydropurin-3-yl]propionate trifluoroacetate] to `CC#CCn1c(N2CCNCC2)nc2c1c(=O)n(C)c(=O)n2C1CCNC1=O` (centres unmarked) [Example 410, 7-(2-Butynyl)-1-methyl-3-(2-oxopyrrolidin-3-yl)-8-(piperazin-1-yl)-3,7-dihydropurine-2,6-dione hydrochloride], the IC50 falls from 359 nM to 64.9 nM (5.5-fold).

`CC#CCn1c(N2CCNCC2)nc2c1c(=O)n(CC(=O)c1ccccc1)c(=O)n2CC(=O)OC` [Example 415, Methyl[7-(2-butynyl)-2,6-dioxo-1-(2-oxo-2-phenylethyl)-8-(pipierazin-1-yl)-1,2,6,7-tetrahydropurin-3-yl]acetate trifluoroacetate] gave an IC50 of 1.81 nM.

same assay, conditions: IC50 (nM), DPPIV 10 mU/mL; Gly-Pro-p-nitroanilide 0.33 mM; absorbance 405 nm

First: O=c1c2c(cnn1CCc1ccccc1)nc(N1CCNCC1)n2Cc1ccccc1 [Example 311, 3-Benzyl-5-(2-phenylethyl)-2-(piperazin-1-yl)-3,5-dihydroimidazo[4,5-d]pyridazin-4-one trifluoroacetate]
Second: CC#CCn1c(N2CCNCC2)nc2c1c(=O)n(CCc1ccccc1)c(=O)n2C [Example 367, 7-(2-Butynyl)-3-methyl-1-(2-phenylethyl)-8-(piperazin-1-yl)-3,7-dihydropurine-2,6-dione trifluoroacetate]
The IC50 of the first is 17-fold higher: 77.5 nM for the first, 4.56 nM for the second.

`CC#CCn1c(N2CCNCC2)nc2c1c(=O)[nH]c(=O)n2C` [Example 354, 7-(2-Butynyl)-3-methyl-8-(piperazin-1-yl)-3,7-dihydropurine-2,6-dione] and `CC#CCn1c(N2CCNCC2)nc2c1c(=O)n(C)c(=O)n2CC` [Example 396, 7-(2-Butynyl)-3-ethyl-1-methyl-8-(piperazin-1-yl)-3,7-dihydropurine-2,6-dione trifluoroacetate] are within 1.5-fold of each other in IC50: 285 nM for the first, 197 nM for the second.

`C#CCn1c(=O)c2c(nc(N3CCNCC3)n2CC#CC)n(C)c1=O` [Example 357, 7-(2-Butynyl)-3-methyl-8-(piperazin-1-yl)-1-(2-propynyl)-3,7-dihydropurine-2,6-dione trifluoroacetate] and `CC#CCn1c(N2CCNCC2)nc2c1c(=O)n(CC#N)c(=O)n2C` [Example 359, [7-(2-Butynyl)-3-methyl-2,6-dioxo-8-(piperazin-1-yl)-2,3,6,7-tetrahydropurin-1-yl]acetonitrile trifluoroacetate] are within 1.5-fold of each other in IC50: 323 nM for the first, 353 nM for the second.

`CC#CCn1c(=O)c2c(nc(N3CCNCC3)n2CC#CC)n(C)c1=O` [Example 358, 1,7-bis(2-Butynyl)-3-methyl-8-(piperazin-1-yl)-3,7-dihydropurine-2,6-dione trifluoroacetate] and `CC#CCn1c(N2CCNCC2)nc2c1c(=O)n(C)c(=O)n2CCC` [Example 403, 7-(2-Butynyl)-3-propyl-1-methyl-8-(piperazin-1-yl)-3,7-dihydropurine-2,6-dione trifluoroacetate] are within 1.5-fold of each other in IC50: 357 nM for the first, 266 nM for the second.

Compared with `CC#CCn1c(N2CCNCC2)nc2c1c(=O)n(CCc1ccccc1)c(=O)n2CC(=O)OCC` [Example 416, Ethyl[7-(2-butynyl)-2,6-dioxo-1-(2-phenethyl)-8-(piperazin-1-yl)-1,2,6,7-tetrahydropurin-3-yl]acetate hydrochloride], `CC#CCn1c(N2CCNCC2)nc2c1c(=O)n(CCc1ccccc1)c(=O)n2CC(=O)N1CCCC1` [Example 418, 7-(2-Butynyl)-3-[2-oxo-2-(pyrrolidin-1-yl)ethyl]-1-(2-phenethyl)-8-(piperazin-1-yl)-3,7-dihydro purine-2,6-dione hydrochloride] is 3.5-fold lower in IC50: 4.02 nM for the first, 1.14 nM for the second. The second is the more potent here.
